Source: PMC7930575, “Comparison of the Inhibitory Binding Modes Between the Planar Fascaplysin and Its Nonplanar Tetrahydro-β-carboline Analogs in CDK4” (Frontiers in Chemistry, 2021)
Read-outs that look alike come from different tables or passages of the source.

Experiments:
A549 = assay: MTT cytotoxicity assay, A549 cells, 48 h; type: cell-based; details: Homo sapiens, read-out: Cytotoxicity (IC50, μM) A549
Description: (§1) The cytotoxicity of the target compounds was evaluated via MTT assay; A549, HeLa, HepG2, and WI-38 were selected for the experiment; and the selected cell lines were purchased from Lanzhou Weihuan Biotechnology Development Co., Ltd. All cell lines were maintained in RPMI-1640 medium supplemented with 10% fetal calf serum under the environment of 5% CO2 concentration and 37°C. The incubated tumor cells were seeded in the prepared 96-well plates, respectively, to make them attach for 12 h. Afterward, the cells were processed with the synthesized compounds with different concentrations as well as fascaplysin as the reference group for 48 h. After 48 h, 10 μl of MTT solution (5 mg/ml in PBS) was added into each well and incubated for 4 h. Then, the medium was removed and 100 μl DMSO was added to dissolve the blue-colored formazan. The absorbance was detected at 570 nm by microplate reader to calculate the inhibition rate (%) and the IC50 was defined using GraphPad Prism Software (version 5.02) (shown in Table 1).

HeLa = assay: MTT cytotoxicity assay, HeLa cells, 48 h; type: cell-based; details: Homo sapiens, read-out: Cytotoxicity (IC50, μM) HeLa
Description: as §1

HepG2 = assay: MTT cytotoxicity assay, HepG2 cells, 48 h; type: cell-based; details: Homo sapiens, read-out: Cytotoxicity (IC50, μM) HepG2
Description: as §1

[1] = MTT cytotoxicity assay, normal cells WI-38, 48 h; type: cell-based; details: human
Description: as §1

CDK4/CycD3 = target: T1, CDK4/CycD3 (Homo sapiens, UniProt P11802); assay: CDK4 kinase inhibition assay (mobility shift assay); type: biochemical; details: mean of three independent experiments
T1 construct: purchased Cama
Description: In this study, the inhibitory activities of the synthesized compounds against CDK4/CycD3 were also evaluated using mobility shift assay, and fascaplysin was used as the positive control compound. CDK4/CycD3 was from Cama, kinase substrate peptide was from GL, and fascaplysin was from Selleckchem. First, the kinase base buffer should be prepared (50.0 mmol/L HEPES, pH 7.5, 5 mM MgCl2, 1 mmol DTT, 0.0015% Brij-35). Second, 50 μg CDK4 kinase was added to the kinase base buffer to prepare the kinase solution. The kinase base buffer was used to prepare ATP and substrate peptide solutions, and the obtained solutions were mixed. Third, the synthesized compounds as well as the fascaplysin were diluted with DMSO to the desired concentrations. Fourth, the reaction mixture was incubated at 30°C for 40 min, and 25 μl stop buffer was added to stop the reaction. Finally, conversion was read by Caliper, and GraphPad Prism 5.0 was used to calculate the IC50 values of the compounds against enzyme bioactivities (Table 2).

[2] = A549, MTT assay, 48 h, three independent experiments
[3] = MTT assay, three independent experiments
[4] = HepG2, MTT assay, 48 h, three independent experiments
[5] = WI-38 cells (normal cell line), normal cell line, MTT assay, 48 h, three independent experiments, read-out: Cytotoxicity (IC50, μM) WI-38

T1 sequence (P11802 whole entry): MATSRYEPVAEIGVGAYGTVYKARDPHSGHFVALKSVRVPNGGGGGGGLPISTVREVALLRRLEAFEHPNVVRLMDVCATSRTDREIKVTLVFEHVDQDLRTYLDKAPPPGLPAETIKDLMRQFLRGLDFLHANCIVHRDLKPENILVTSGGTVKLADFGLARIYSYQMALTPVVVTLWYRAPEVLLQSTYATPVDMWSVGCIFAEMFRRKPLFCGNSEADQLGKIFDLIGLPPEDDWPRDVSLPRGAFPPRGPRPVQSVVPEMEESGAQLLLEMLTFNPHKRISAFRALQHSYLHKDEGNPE
T1 sequence (P30281 whole entry partner): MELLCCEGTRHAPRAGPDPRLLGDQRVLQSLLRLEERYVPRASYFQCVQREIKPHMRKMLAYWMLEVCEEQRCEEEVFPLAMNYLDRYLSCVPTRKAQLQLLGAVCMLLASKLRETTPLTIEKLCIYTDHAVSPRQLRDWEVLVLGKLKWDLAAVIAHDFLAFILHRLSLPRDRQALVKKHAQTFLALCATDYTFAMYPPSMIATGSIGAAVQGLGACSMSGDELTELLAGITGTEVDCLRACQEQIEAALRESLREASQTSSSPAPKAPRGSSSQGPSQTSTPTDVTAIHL

Row | Structure (SMILES) | IC50 (A549; [2]) [µM] | IC50 (HeLa; [3]) [µM] | IC50 (HepG2; [4]) [µM] | IC50 at 48 h [1, 5] [µM] | IC50 (CDK4/CycD3) [µM] | melting point [°C] | IC50 (A549; A549, 48 h) [µM] | IC50 (HeLa) [µM] | IC50 (HepG2; HepG2, 48 h) [µM] | IC50 at 48 h [1] [µM]
1 | COC(=O)C1c2[nH]c3ccccc3c2CCN1C(=O)c1ccc(F)cc1 (stereo not drawn) [Compound 6a, Methyl-2-(4-fluorobenzoyl)-2,3,4,9-tetrahydro-1H-pyrido [3,4-b] indole-1-carboxylate] | 38.3 ± 2.53 | 28.4 ± 1.12 | 31.6 ± 2.53 | 253 ± 33.2 | 29.6 | 182.8 to 183.7 |  |  |  | 
2 | COC(=O)C1c2[nH]c3ccccc3c2CCN1C(=O)c1ccc(OC)cc1 (stereo not drawn) [Compound 6b, Methyl-2-(4-methoxybenzoyl)-2,3,4,9-tetrahydro-1H-pyrido [3,4-b] indole-1-carboxylate] | 13.2 ± 1.21 | 14.1 ± 2.69 | 26.3 ± 1.88 | 267 ± 28.9 | 25.7 | 200.8 to 201.6 |  |  |  | 
3 | COC(=O)C1c2[nH]c3ccccc3c2CCN1C(=O)c1ccc(-c2ccccc2)cc1 (stereo not drawn) [Compound 6c, Methyl-2-([1, 1’-biphenyl]-4-carbonyl)-2,3,4,9-tetrahydro-1H-pyrido [3,4-b] indole-1 carboxylate] | 6.53 ± 1.65 | 1.03 ± 0.19 | 5.21 ± 0.58 | 312 ± 56.1 | 1.89 | 177.8 to 179.6 |  |  |  | 
4 | COC(=O)C1c2[nH]c3ccccc3c2CCN1C(=O)c1ccc(I)cc1 (stereo not drawn) [Compound 6d, Methyl-2-(4-iodobenzoyl)-2,3,4,9-tetrahydro-1H-pyrido [3,4-b] indole-1-carboxylate] | 10.8 ± 1.17 | 19.4 ± 2.56 | 33.4 ± 5.18 | 373 ± 62.8 | 30.3 | 195.6 to 196.5 |  |  |  | 
5 | COC(=O)C1c2[nH]c3ccccc3c2CCN1C(=O)c1ccccc1 (stereo not drawn) [Compound 6e, Methyl-2-benzoyl-2,3,4,9-tetrahydro-1H-pyrido [3,4-b] indole-1-carboxylate] | 15.5 ± 1.26 | 16.8 ± 4.12 | 31.8 ± 2.86 | 118 ± 12.9 | 20.7 |  |  |  |  | 
6 | COC(=O)C1c2[nH]c3ccccc3c2CCN1C(=O)c1ccc(C(F)(F)F)cc1 (stereo not drawn) [Compound 6f, Methyl-2-(4-(trifluoromethyl)benzoyl)-2,3,4,9-tetrahydro-1H-pyrido [3,4-b] indole-1-carboxylate] | 38.7 ± 7.25 | 29.9 ± 4.73 | 35.8 ± 3.23 | 125 ± 26.1 | 39.6 | 193.3 to 194.36 |  |  |  | 
7 | COC(=O)C1c2[nH]c3ccccc3c2CCN1C(=O)c1ccc(Cl)cc1 (stereo not drawn) [Compound 6g, Methyl 2-(4-chlorobenzoyl)-2,3,4,9-tetrahydro-1H-pyrido[3,4-b] indole-1-carboxylate] | 25.7 ± 8.78 | 22.9 ± 2.31 | 13.7 ± 2.13 | 375 ± 60 | 27.5 | 200.3 to 201.5 |  |  |  | 
8 | COC(=O)C1c2[nH]c3ccccc3c2CCN1C(=O)c1ccc2ccccc2c1 (stereo not drawn) [Compound 6h, Methyl-2-(2-naphthoyl)-2,3,4,9-tetrahydro-1H-pyrido [3,4-b] indole-1-carboxylate] | 12.7 ± 1.2 | 10.8 ± 2.69 | 19.5 ± 0.43 | 186 ± 12.4 | 12.4 | 183.6 to 184.5 |  |  |  | 
9 | COC(=O)C1c2[nH]c3ccccc3c2CCN1C(=O)c1ccc2c(c1)OCO2 (stereo not drawn) [Compound 6i, Methyl-2-(benzo [d] [1,3]dioxole-5-carbonyl)-2,3,4,9-tetrahydro-1H-pyrido [3,4-b] indole-1-carboxylate] | 9.6 ± 3.22 | 3.57 ± 0.93 | 12.2 ± 3.01 | 247 ± 10.9 | 3.38 | 165.3 to 166.7 |  |  |  | 
10 | CCOC(=O)C1c2[nH]c3ccccc3c2CCN1C(=O)c1ccc(F)cc1 (stereo not drawn) [Compound 7a, Ethyl-2-(4-fluorobenzoyl)-2,3,4,9-tetrahydro-1H-pyrido [3,4-b] indole-1-carboxylate] | 39.5 ± 4.98 | 29.6 ± 7.07 | 47.5 ± 4.11 | 255 ± 86.3 | 31.6 | 199.5 to 201.7 |  |  |  | 
11 | CCOC(=O)C1c2[nH]c3ccccc3c2CCN1C(=O)c1ccc(OC)cc1 (stereo not drawn) [Compound 7b, Ethyl-2-(4-methoxybenzoyl)-2,3,4,9-tetrahydro-1H-pyrido [3,4-b] indole-1-carboxylate] | 15.5 ± 13.4 | 15.4 ± 3.1 | 41.5 ± 2.42 | 429 ± 38.9 | 30.7 | 206.9 to 209.8 |  |  |  | 
12 | CCOC(=O)C1c2[nH]c3ccccc3c2CCN1C(=O)c1ccc(-c2ccccc2)cc1 (stereo not drawn) [Compound 7c, Ethyl 2-([1, 1’-biphenyl]-4-carbonyl)-2,3,4,9-tetrahydro-1H-pyrido [3,4-b] indole-1 carboxylate] | 10.5 ± 1.5 | 4.71 ± 0.7 | 10.8 ± 1.49 | 281 ± 7.81 | 4.89 | 201.4 to 201.8 |  |  |  | 
13 | CCOC(=O)C1c2[nH]c3ccccc3c2CCN1C(=O)c1ccc(I)cc1 (stereo not drawn) [Compound 7d, Ethyl-2-(4-iodobenzoyl)-2,3,4,9-tetrahydro-1H-pyrido[3,4-b] indole-1-carboxylate] | 20.4 ± 2.68 | 27.6 ± 2.38 | 28.2 ± 0.95 | 183 ± 17.9 | 35.3 | 175.6 to 176.3 |  |  |  | 
14 | CCOC(=O)C1c2[nH]c3ccccc3c2CCN1C(=O)c1ccccc1 (stereo not drawn) [Compound 7e, Ethyl-2-benzoyl-2,3,4,9-tetrahydro-1H-pyrido [3,4-b] indole-1-carboxylate] | 27.3 ± 6.5 | 19.9 ± 2.45 | 21.4 ± 1.69 | 99.8 ± 9.97 | 29.7 | 196.5 to 198.6 |  |  |  | 
15 | CCOC(=O)C1c2[nH]c3ccccc3c2CCN1C(=O)c1ccc(C(F)(F)F)cc1 (stereo not drawn) [Compound 7f, Ethyl-2-(4-(trifluoromethyl)benzoyl)-2,3,4,9-tetrahydro-1H-pyrido [3,4-b] indole-1-carboxylate] | 42.1 ± 7.6 | 47 ± 4.8 | 16.2 ± 3.72 | 183 ± 17.9 | 43.9 |  |  |  |  | 
16 | CCOC(=O)C1c2[nH]c3ccccc3c2CCN1C(=O)c1ccc(Cl)cc1 (stereo not drawn) [Compound 7g, Ethyl-2-(4-chlorobenzoyl)-2,3,4,9-tetrahydro-1H-pyrido[3,4-b] indole-1-carboxylate] | 27.3 ± 2.4 | 24.9 ± 3.44 | 41.4 ± 1.69 | 200 ± 9.97 | 30.4 | 232.3 to 233.5 |  |  |  | 
17 | CCOC(=O)C1c2[nH]c3ccccc3c2CCN1C(=O)c1ccc2ccccc2c1 (stereo not drawn) [Compound 7h, Ethyl-2-(2-naphthoyl)-2,3,4,9-tetrahydro-1H-pyrido [3,4-b] indole-1-carboxylate] | 25.5 ± 3.92 | 16.5 ± 6.64 | 17.5 ± 13.8 | 183 ± 13.2 | 16.4 | 209.6 to 211.5 |  |  |  | 
18 | O=C1c2ccccc2-[n+]2ccc3c([nH]c4ccccc43)c21 [Fascaplysin] |  |  |  |  | 0.79 ± 0.72 |  | 1.05 ± 0.08 | 0.56 ± 0.05 | 0.24 ± 0.04 | 1.86 ± 0.17
